Test results from US20240366598A1, “GLUCOSE-DEPENDENT INSULINOTROPIC POLYPEPTIDE RECEPTOR ANTAGONISTS AND USES THEREOF” (Pfizer Inc., priority 2023, published 2024).

Target: T1, human Glucose-dependent Insulinotropic Polypeptide Receptor (hGIPR) (Homo sapiens, UniProt P48546)
T1 sequence (P48546 22-466): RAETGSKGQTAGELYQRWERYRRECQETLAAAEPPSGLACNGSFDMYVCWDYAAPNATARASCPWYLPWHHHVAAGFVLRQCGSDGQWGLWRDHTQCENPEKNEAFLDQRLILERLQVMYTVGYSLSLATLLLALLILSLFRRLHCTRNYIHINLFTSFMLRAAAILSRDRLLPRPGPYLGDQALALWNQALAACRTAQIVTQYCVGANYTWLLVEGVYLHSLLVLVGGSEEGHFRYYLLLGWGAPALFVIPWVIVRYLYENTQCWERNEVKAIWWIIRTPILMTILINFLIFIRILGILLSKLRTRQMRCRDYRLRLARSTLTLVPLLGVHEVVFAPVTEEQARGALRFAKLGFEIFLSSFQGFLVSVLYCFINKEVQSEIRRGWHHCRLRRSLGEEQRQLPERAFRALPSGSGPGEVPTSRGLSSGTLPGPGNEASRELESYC
Assay: Functional in vitro GIPR antagonist potency assay (cAMP HTRF, CHO-K1 cells stably expressing hGIPR, hGIP stimulation at about EC80)
Format: cell-based
Conditions: geometric mean, hGIP at estimated EC80, examples marked ^2: overall geometric mean of multiple forms (including salts) tested
How it was run: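 HTRF quantification of cAMP after stimulation with hGIP at an estimated EC80 for 30 min at 37 °C. Before stimulation, hGIPR-expressing CHO-K1 cells were exposed 2 h to test compound in IBMX-containing buffer, with 0.5% DMSO final. Percent effect is referenced to agonist alone (0%) and to 80 μM of a reference antagonist (100%), and runs required the agonist concentration to fall within the on-the-day EC50–EC90.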

IC50 [nM]	SMILES
43	Cc1cc(NC(=O)N2CCC[C@@H]2C(=O)Nc2ccc(-c3cccc(C(=O)O)c3)cn2)ncc1C(C)C [Example 184, 3-{6-[(1-{[4-methyl-5-(propan-2-yl)pyridin-2-yl]carbamoyl}-D-prolyl)amino]pyridin-3-yl}benzoic acid]
4.2	Cc1cc(-c2ccc(NC(=O)[C@H]3CCCN3C(=O)Nc3ccc(C(C)C)c(C)c3)nc2)ccc1C(=O)O [Example 185, 2-methyl-4-{6-[(1-{[3-methyl-4-(propan-2-yl)phenyl]carbamoyl}-D-prolyl)amino]pyridin-3-yl}benzoic acid]
36	Cc1cc(NC(=O)N2CCC[C@@H]2C(=O)Nc2ccc(-c3ccc(C(=O)O)c(F)c3)cn2)ccc1C(F)(F)F [Example 186, 2-fluoro-4-{6-[(1-{[3-methyl-4-(trifluoromethyl)phenyl]carbamoyl}-D-prolyl)amino]pyridin-3-yl}benzoic acid]
51	Cc1cc(NC(=O)N2CCC[C@@H]2C(=O)Nc2ccc(-c3ccc(C(=O)O)c(F)c3)cn2)ccc1C(C)C [Example 187, 2-fluoro-4-{6-[(1-{[3-methyl-4-(propan-2-yl)phenyl]carbamoyl}-D-prolyl)amino]pyridin-3-yl}benzoic acid]
32	O=C(O)c1cccc(-c2ccc(NC(=O)[C@H]3CCCN3C(=O)Nc3ccc(Cl)c(C(F)(F)F)c3)nc2)c1 [Example 188, 3-{6-[(1-{[4-chloro-3-(trifluoromethyl)phenyl]carbamoyl}-D-prolyl)amino]pyridin-3-yl}benzoic acid]
42	CC(C)c1ccc(CNC(=O)N2CCC[C@@H]2C(=O)Nc2ccc(-c3ccc(C(=O)O)c(F)c3)cn2)cc1 [Example 189, 2-fluoro-4-(6-{[1-({[4-(propan-2-yl)phenyl]methyl}carbamoyl)-D-prolyl]amino}pyridin-3-yl)benzoic acid]
9.9	Cc1cc(-c2ccc(NC(=O)[C@H]3CCCN3C(=O)NCc3ccc(C(F)(F)F)c(F)c3)nc2)ccc1C(=O)O [Example 190, 4-(6-{[1-({[3-fluoro-4-(trifluoromethyl)phenyl]methyl}carbamoyl)-D-prolyl]amino}pyridin-3-yl)-2-methylbenzoic acid]
14	Cc1cc(-c2ccc(NC(=O)[C@H]3CCCN3C(=O)NCc3ccc(C(C)C)cc3)nc2)ccc1C(=O)O [Example 191, 2-methyl-4-(6-{[1-{{[4-(propan-2-yl)phenyl]methyl}carbamoyl)-D-prolyl]amino}pyridin-3-yl)benzoic acid]
12	Cc1cc(-c2ccc(NC(=O)[C@H]3CCCN3C(=O)NCc3ccc(C(F)(F)F)cc3)nc2)ccc1C(=O)O [Example 192, 2-methyl-4-(6-{[1-({[4-(trifluoromethyl)phenyl]methyl}carbamoyl)-D-prolyl]amino}pyridin-3-yl)benzoic acid]
17	O=C(O)c1ccc(-c2ncc(NC(=O)[C@H]3CCCN3C(=O)Nc3ccc(C(F)(F)F)cc3)cc2F)cc1 [Example 193, 4-{3-fluoro-5-[(1-{[4-(trifluoromethyl)phenyl]carbamoyl}-D-prolyl)amino]pyridin-2-yl}benzoic acid]
14	CC(C)c1ccc(NC(=O)N2CCC[C@@H]2C(=O)Nc2ccc(-c3ccc(C(=O)O)cc3)nc2)cc1F [Example 194, 4-{5-[(1-{[3-fluoro-4-(propan-2-yl)phenyl]carbamoyl}-D-prolyl)amino]pyridin-2-yl}benzoic acid]
35	O=C(O)c1ccc(-c2ccc(NC(=O)[C@H]3CCCN3C(=O)NCc3ccc(C(F)(F)F)cc3)cc2)cn1 [Example 195, 5-(4-{[1-({[4-(trifluoromethyl)phenyl]methyl}carbamoyl)-D-prolyl]amino}phenyl)pyridine-2-carboxylic acid]
49	O=C(O)c1ccc(-c2ccc(NC(=O)[C@H]3CCCN3C(=O)Nc3ccc(C(F)(F)F)cc3)cc2)cn1 [Example 196, 5-{4-[(1-{[4-(trifluoromethyl)phenyl]carbamoyl}-D-prolyl)amino]phenyl}pyridine-2-carboxylic acid]
29	O=C(O)c1ccc(-c2ccc(NC(=O)[C@H]3CCCN3C(=O)Nc3ccc(C4(C(F)(F)F)CC4)cc3)cc2)cn1 [Example 197, 5-(4-{[1-({4-[1-(trifluoromethyl)cyclopropyl]phenyl}carbamoyl)-D-prolyl]amino}phenyl)pyridine-2-carboxylic acid]
69	Cc1cc(NC(=O)N2CCC[C@@H]2C(=O)Nc2ccc(-c3ccc(C(=O)O)cc3)nc2)ncc1C(C)C [Example 198, 4-{5-[(1-{[4-methyl-5-(propan-2-yl)pyridin-2-yl]carbamoyl}-D-prolyl)amino]pyridin-2-yl}benzoic acid]
71	CC(C)c1ccc(NC(=O)N2CCC[C@@H]2C(=O)Nc2ccc(-c3ccc(C(=O)O)c(F)c3)cn2)cc1 [Example 199, 2-fluoro-4-{6-[(1-{[4-(propan-2-yl)phenyl]carbamoyl}-D-prolyl)amino]pyridin-3-yl}benzoic acid]
9.9	Cc1cc(-c2ccc(NC(=O)[C@H]3CCCN3C(=O)Nc3ccc(C(C)C)cc3)nc2)ccc1C(=O)O [Example 200, 2-methyl-4-{6-[(1-{[4-(propan-2-yl)phenyl]carbamoyl}-D-prolyl)amino]pyridin-3-yl}benzoic acid]
91	Cc1cc(NC(=O)N2CCC[C@@H]2C(=O)Nc2ccc(-c3ccc(C(=O)O)nc3)cn2)ccc1C(C)C [Example 201, ammonium 6′-[(1-{[3-methyl-4-(propan-2-yl)phenyl]carbamoyl}-D-prolyl)amino][3,3′-bipyridine]-6-carboxylate]
22	Cc1cc(NC(=O)N2CCC[C@@H]2C(=O)Nc2ccc(-c3cccc(C(=O)O)c3)cn2)ncc1C(F)(F)F [Example 202, 3-{6-[(1-{[4-methyl-5-(trifluoromethyl)pyridin-2-yl]carbamoyl}-D-prolyl)amino]pyridin-3-yl}benzoic acid]
8.4	Cc1cc(NC(=O)N2CCC[C@@H]2C(=O)Nc2ccc(-c3ccc(C(=O)O)cc3)cc2)ncc1C(F)(F)F [Example 203, 4′-[(1-{[4-methyl-5-(trifluoromethyl)pyridin-2-yl]carbamoyl}-D-prolyl)amino][1,1′-biphenyl]-4-carboxylic acid]
14	O=C(O)c1ccc(-c2ccc(NC(=O)[C@H]3CCCN3C(=O)Nc3ccc(C(F)(F)F)cc3)cc2)cc1F [Example 204, 3-fluoro-4′-[(1-{[4-(trifluoromethyl)phenyl]carbamoyl}-D-prolyl)amino][1,1′-biphenyl]-4-carboxylic acid]
14	Cc1nc(C(=O)O)ccc1-c1ccc(NC(=O)[C@H]2CCCN2C(=O)NCc2ccc(C(C)C)cc2)cc1 [Example 205, 6-methyl-5-(4-{[1-({[4-(propan-2-yl)phenyl]methyl}carbamoyl)-D-prolyl]amino}phenyl)pyridine-2-carboxylic acid]
14	Cc1nc(C(=O)O)ccc1-c1ccc(NC(=O)[C@H]2CCCN2C(=O)NCc2ccc(C(F)(F)F)cc2)cc1 [Example 206, 6-methyl-5-(4-{[1-{{[4-(trifluoromethyl)phenyl]methyl}carbamoyl)-D-prolyl]amino}phenyl)pyridine-2-carboxylic acid]
1.3	CC(C)c1ccc(NC(=O)N2CCC[C@@H]2C(=O)Nc2ccc(-c3ccc(C(=O)O)cc3)cn2)cc1F [Example 207, 4-{6-[(1-{[3-fluoro-4-(propan-2-yl)phenyl]carbamoyl}-D-prolyl)amino]pyridin-3-yl}benzoic acid]
4.9	CC(C)c1ccc(NC(=O)N2CCC[C@@H]2C(=O)Nc2ccc(-c3ccc(C(=O)O)nc3)cc2)cc1F [Example 208, 5-{4-[(1-{[3-fluoro-4-(propan-2-yl)phenyl]carbamoyl}-D-prolyl)amino]phenyl}pyridine-2-carboxylic acid]
7.4	Cc1cc(-c2ccc(NC(=O)[C@H]3CCCN3C(=O)Nc3ccc(C(F)(F)F)cc3)cc2)ccc1C(=O)O [Example 209, 3-methyl-4′-[(1-{[4-(trifluoromethyl)phenyl]carbamoyl}-D-prolyl)amino][1,1′-biphenyl]-4-carboxylic acid]
9.3	O=C(O)c1ccc(-c2ccc(NC(=O)[C@H]3CCCN3C(=O)Nc3ccc(C4CCC4)cc3)nc2)cc1 [Example 210, 4-[6-({1-[(4-cyclobutylphenyl)carbamoyl]-D-prolyl}amino)pyridin-3-yl]benzoic acid]
7	O=C(O)c1ccc(-c2ccc(NC(=O)[C@H]3CCCN3C(=O)Nc3ccc(C4CCC4)cc3)cc2)cn1 [Example 211, 5-[4-({1-[(4-cyclobutylphenyl)carbamoyl]-D-prolyl}amino)phenyl]pyridine-2-carboxylic acid]
18	Cc1ccc(CNC(=O)N2CCC[C@@H]2C(=O)Nc2ccc(-c3ccc(C(=O)O)nc3C)cc2)cc1F [Example 212, 5-{4-[(1-{[(3-fluoro-4-methylphenyl)methyl]carbamoyl}-D-prolyl)amino]phenyl}-6-methylpyridine-2-carboxylic acid]
90	Cc1nc(C(=O)O)ccc1-c1ccc(NC(=O)[C@H]2CCCN2C(=O)Nc2cnc(C(C)C)c(F)c2)cc1 [Example 213, 5-{4-[(1-{[5-fluoro-6-(propan-2-yl)pyridin-3-yl]carbamoyl}-D-prolyl)amino]phenyl}-6-methylpyridine-2-carboxylic acid]
